Source: paper PMC6154583, “Optimized 4,5-Diarylimidazoles as Potent/Selective Inhibitors of Protein Kinase CK1δ and Their Structural Relation to p38α MAPK” (Molecules : A Journal of Synthetic Chemistry and Natural …, 2017)
Each block holds one compound with its values, some of them ahead of it.

Columns and labels:
Colo357 cells = assay: MTT viability assay; format: cell-based, human; conditions: mean ± SD, n = 3
Experimental: (§1) The human pancreatic cancer cell lines Colo357 [61], Panc-1 [62], and MiaPaCa-2 [63] were grown in Dulbecco’s modified Eagle’s medium (DMEM). Panc89 [64] was grown in DMEM:RPMI-1640 medium in ratio 1:1. The human colon adenocarcinoma cell line HT-29 [65] was grown in McCoy’s 5A medium. All media were supplemented with 10% fetal calf serum (FCS), 100 units·mL^−1 penicillin, 100 µg∙mL^−1 streptomycin and 2 mM glutamine. All cells were grown at 37 °C in a humidified 5% carbon dioxide atmosphere.
(§2) In order to determine the cytotoxic effects of investigated inhibitors conventional MTT assay were used. 1 × 10^4 cells∙well^−1 were seeded in 96-well cell culture plates and cultivated for 24 h. Cell lines were exposed to increasing concentrations of the indicated inhibitor compounds, with untreated and DMSO-treated cells serving as control. After an incubation period of 48 h 10 µL of MTT solution (5 mg∙mL^−1 in PBS) were added and cells were incubated for 4 h. MTT-containing medium was carefully removed and 100 µL acidic isopropanol (0.04 N HCl in isopropanol) per well were added. For dissolution of formazan crystals plates were shaken for 30 min on an orbital shaker in the dark. Finally, dissolved crystals were measured spectrophotometrically at […]. All experiments were performed in triplicate with four technical replicates per assay. Results were normalized considering the mean optical density value of control wells as 100%. GraphPad Prism 6 (La Jolla, CA, USA) software was used to calculate EC50 values.

MiaPaCa-2 cells = assay: MTT viability assay; format: cell-based, human; conditions: mean ± SD, n = 3
Experimental: as §1, §2

Panc-1 cells = assay: MTT viability assay; format: cell-based, human; conditions: mean ± SD, n = 3
Experimental: as §1, §2

CK1δ/ε = conditions: read-out: IC50 CK1δ/ε; cited from earlier work
CK1α = conditions: read-out: IC50 CK1α; cited from earlier work
[1] = Chemical stability in DMSO solution by HPLC analysis; format: physicochemical; conditions: within a short period of time after preparing a solution in DMSO
From the text: The binding modes described above are based on (E)-configured cinnamic moieties of 1 and 2, respectively. […] Accordingly, computational analysis assume these (Z)-stereoisomers to be less bioactive. Furthermore, the acrylamide Michael acceptor moiety of the cinnamic acid side chain was considered responsible for the observed chemical instability of 1 and 2 in solution. […] Consequently, our primary goal towards an optimized inhibitor was to gain chemical stability. Thus, having identified the cinnamic side chain to be responsible for the chemical instability issue we aimed towards stable side chains attached at the validated 2-aminopyridine core moiety. By these modifications we set out to explore the respective hydrophobic region II formerly occupied by the cinnamic acid moiety. At the same time, both potency and selectivity for CK1δ were taken into account. Therefore, in our systematic approach four structurally divergent series of inhibitors with variable side chains (Scheme 1) have been designed based on the following considerations.
They were stable in DMSO solution at room temperature without detectable degradation over a period of 72 h by HPLC analysis.

CK1ε = tested on: CK1ε; design: method as in PMID 19591487; conditions: cited from earlier work
HT-29 cells = assay: MTT viability assay; format: cell-based; conditions: Homo sapiens, dilution series
Experimental: as §1
In order to determine the cytotoxic effects of investigated inhibitors conventional MTT assay were used. 1 × 10^4 cells∙well^−1 were seeded in 96-well cell culture plates and cultivated for 24 h. Cell lines were exposed to increasing concentrations of the indicated inhibitor compounds, with untreated and DMSO-treated cells serving as control. After an incubation period of 48 h 10 µL of MTT solution (5 mg∙mL^−1 in PBS) were added and cells were incubated for 4 h. […] Finally, dissolved crystals were measured spectrophotometrically at 570 nM. […]
Figure S1. (A) HT-29 cells were treated with compounds of series 1 at 20 µM concentration and cell viability was measured by MTT viability assay. […]
screening at 20 µM concentration. Cell viability was determined by MTT assay and the EC50 value was calculated using GraphPad Prism 6. […]

Panc89 cells = assay: MTT viability assay; format: cell-based, human; conditions: 48 h incubation, mean ± SD, n = 3
Experimental: as §1, §2

CK1δ = CK1δ (Homo sapiens, UniProt P48730); design: method as in PMID 19591487; conditions: CK1δ versus CK1ε; cited from earlier work
[2] = Homo sapiens, COLO357, 48 h incubation
[3] = Homo sapiens, MIA PaCa-2, 48 h incubation
[4] = Homo sapiens, PANC-1, 48 h incubation

Sequence of CK1δ (P48730 whole entry): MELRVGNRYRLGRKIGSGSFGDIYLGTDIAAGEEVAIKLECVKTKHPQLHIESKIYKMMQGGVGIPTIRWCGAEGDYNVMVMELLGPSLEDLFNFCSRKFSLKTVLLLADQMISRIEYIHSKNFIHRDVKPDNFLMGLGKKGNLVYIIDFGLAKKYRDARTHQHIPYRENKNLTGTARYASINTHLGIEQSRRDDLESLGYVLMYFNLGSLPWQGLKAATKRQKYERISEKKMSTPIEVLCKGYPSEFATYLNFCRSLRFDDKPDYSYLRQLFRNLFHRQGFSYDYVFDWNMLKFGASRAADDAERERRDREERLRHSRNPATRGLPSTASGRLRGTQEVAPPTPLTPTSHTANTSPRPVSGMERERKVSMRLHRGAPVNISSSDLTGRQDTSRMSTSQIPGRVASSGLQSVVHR

EC50 (Colo357 cells; [2]): 16.7 ± 5.6 µM
EC50 (MiaPaCa-2 cells; [3]): 7.7 ± 2.5 µM
EC50 (Panc-1 cells; [4]): 10.2 ± 3.2 µM
SMILES: COc1ccc(-c2cc(C(=O)Nc3cc(-c4nc([S+](C)[O-])[nH]c4-c4ccc(F)cc4)ccn3)n(C)c2)c(OC)c1 (stereo not drawn) [16c, 4-(2,4-Dimethoxyphenyl)-N-(4-(5-(4-fluorophenyl)-2-(methylsulfinyl)-1H-imidazol-4-yl)-pyridin-2-yl)-1-methyl-1H-pyrrol-2-carboxamide]

EC50 (MiaPaCa-2 cells; [3]): 2.4 ± 0.7 µM
EC50 (Panc-1 cells; [4]): 5.1 ± 1.6 µM
SMILES: COc1ccc(-c2cc(C(=O)Nc3cc(-c4nc(SC)[nH]c4-c4ccc(F)cc4)ccn3)n(C)c2)c(OC)c1 [16a, 4-(2,4-Dimethoxyphenyl)-N-(4-(5-(4-fluorphenyl)-2-(methylthio)-1H-imidazol-4-yl)-pyridin-2-yl)-1-methyl-1H-pyrrole-2-carboxamide]

SMILES: COc1cc(OC)c(C=C2C(O)=Nc3ccccc32)c(OC)c1 [IC261]
IC50 (CK1δ/ε): 1 µM
IC50 (CK1α): 10 µM

SMILES: COc1ccc(/C=C/C(=O)Nc2cc(-c3nc(SC)[nH]c3-c3ccc(F)cc3)ccn2)c(OC)c1 [compound 1]
chemical stability in DMSO solution (HPLC analysis) [1]: increasing number of not identifiable degradation products
IC50 (CK1ε): 0.073 µM

EC50 (HT-29 cells): 9.3 µM
SMILES: CSc1nc(-c2ccnc(NCCc3c[nH]c4ccccc34)c2)c(-c2ccc(F)cc2)[nH]1 [10e, N-(2-(1H-Indol-3-yl)-ethyl)-4-(5-(4-fluorophenyl)-2-(methylthio)-1H-imidazol-4-yl)-pyridin-2-amine]

EC50 (Colo357 cells; [2]): 1.9 ± 0.6 µM
EC50 (Panc89 cells; Homo sapiens): 6.1 ± 3 µM
SMILES: COc1cccc(CCC(=O)Nc2cc(-c3nc(SC)[nH]c3-c3ccc(F)cc3)ccn2)c1OC [11c, 3-(2,3-Dimethoxyphenyl)-N-(4-(5-(4-fluorophenyl)-2-(methylthio)-1H-imidazol-4-yl)-pyridin-2-yl)-propanamide]

EC50 (Colo357 cells; 48 h incubation): 14.9 ± 2.6 µM
EC50 (Panc89 cells): 7.5 ± 3 µM
SMILES: CSc1nc(-c2ccnc(NC(=O)Nc3ccc(C)c(Cl)c3)c2)c(-c2ccc(F)cc2)[nH]1 [12e, 1-(3-Chloro-4-methylphenyl)-3-(4-(5-(4-fluorophenyl)-2-(methylthio)-1H-imidazol-4-yl)-pyridin-2-yl)-carbamide]

EC50 (Colo357 cells; [2]): 5.9 ± 2.4 µM
EC50 (Panc89 cells; Homo sapiens): 7.8 ± 0.4 µM
SMILES: COc1ccc(CCC(=O)Nc2cc(-c3nc(SC)[nH]c3-c3ccc(F)cc3)ccn2)cc1OC [11d, 3-(3,4-Dimethoxyphenyl)-N-(4-(5-(4-fluorophenyl)-2-(methylthio)-1H-imidazol-4-yl)-pyridin-2-yl)-propanamide]

SMILES: COc1ccc(OC)c(-c2cc(C(=O)Nc3cc(-c4nc(SC)[nH]c4-c4ccc(F)cc4)ccn3)n(C)c2)c1 [16b, 4-(2,5-Dimethoxyphenyl)-N-(4-(5-(4-fluorphenyl)-2-(methylthio)-1H-imidazol-4-yl)-pyridin-2-yl)-1-methyl-1H-pyrrole-2-carboxamide]
EC50 (Colo357 cells; 48 h incubation): 5.7 ± 2.2 µM
EC50 (MiaPaCa-2 cells; 48 h incubation): 2.3 ± 0.2 µM
EC50 (Panc-1 cells; 48 h incubation): 5.4 ± 1.5 µM
EC50 (Panc89 cells): 7.3 ± 1.9 µM

EC50 (Colo357 cells; [2]): 4.1 ± 1.7 µM
EC50 (MiaPaCa-2 cells; [3]): 4.9 ± 0.8 µM
EC50 (Panc-1 cells; [4]): 7 ± 0.7 µM
EC50 (Panc89 cells; Homo sapiens): 2.5 ± 1 µM
SMILES: COc1ccc(CCC(=O)Nc2cc(-c3nc(SC)[nH]c3-c3ccc(F)cc3)ccn2)c(OC)c1 [11a, 3-(2,4-Dimethoxyphenyl)-N-(4-(5-(4-fluorophenyl)-2-(methylthio)-1H-imidazol-4-yl)-pyridin-2-yl)propanamide]

SMILES: COc1ccc(C=CC(=O)Nc2cc(-c3nc([S+](C)[O-])[nH]c3-c3ccc(F)cc3)ccn2)c(OC)c1 (stereo not drawn) [compound 2]
chemical stability in DMSO solution (HPLC analysis) [1]: increasing number of not identifiable degradation products
discrimination of isoforms δ and ε (CK1δ): at least 40 fold
IC50 (CK1ε): 0.447 µM

EC50 (Colo357 cells; [2]): 4.5 ± 1.3 µM
EC50 (Panc89 cells; Homo sapiens): 8.3 ± 2.2 µM
SMILES: COc1cc(CCC(=O)Nc2cc(-c3nc(SC)[nH]c3-c3ccc(F)cc3)ccn2)cc(OC)c1OC [11e, 3-(3,4,5-Trimethoxyphenyl)-N-(4-(5-(4-fluorophenyl)-2-(methylthio)-1H-imidazol-4-yl)-pyridin-2-yl)-propanamide]

EC50 (Colo357 cells; [2]): 17.4 ± 0.04 µM
EC50 (MiaPaCa-2 cells; [3]): 15.22 ± 0.04 µM
EC50 (Panc-1 cells; [4]): 16.1 ± 5.6 µM
EC50 (Panc89 cells; Homo sapiens): 19.6 ± 3.8 µM
SMILES: COc1ccc(NC(=O)Nc2cc(-c3nc(SC)[nH]c3-c3ccc(F)cc3)ccn2)c(OC)c1 [12a, 1-(2,4-Dimethoxyphenyl)-3-(4-(5-(4-fluorophenyl)-2-(methylthio)-1H-imidazol-4-yl)-pyridin-2-yl)carbamide]

EC50 (Colo357 cells; 48 h incubation): 15.5 ± 1.6 µM
EC50 (MiaPaCa-2 cells; 48 h incubation): 11.6 ± 1.1 µM
EC50 (Panc-1 cells; 48 h incubation): 15.2 ± 2.6 µM
SMILES: COc1ccc(OC)c(NC(=O)Nc2cc(-c3nc(SC)[nH]c3-c3ccc(F)cc3)ccn2)c1 [12b, 1-(2,5-Dimethoxyphenyl)-3-(4-(5-(4-fluorophenyl)-2-(methylthio)-1H-imidazol-4-yl)-pyridin-2-yl)carbamide]
